Measured values taken from PMC10817170, “Effect of an NHE3 inhibitor in combination with an NPT2b inhibitor on gastrointestinal phosphate absorption in Rodent models” (PLOS ONE, 2024).
Values joined by “and” are separate entries in the source; they are usually repeats but may differ in a detail not shown here. Equal entries are not always repeated.

What was measured:
[1] = target: T1, Human SGLT1 (Homo sapiens, UniProt P13866); assay: SGLT1 activity assay (14C-alpha-methyl-D-glucopyranoside uptake in CHO cells); assay type: cell-based; settings: geometric mean, n=4
T1 construct: expressed in transfected cells; host or cells: CHO cells, constitutive expression
T1 sequence (P13866 1-664): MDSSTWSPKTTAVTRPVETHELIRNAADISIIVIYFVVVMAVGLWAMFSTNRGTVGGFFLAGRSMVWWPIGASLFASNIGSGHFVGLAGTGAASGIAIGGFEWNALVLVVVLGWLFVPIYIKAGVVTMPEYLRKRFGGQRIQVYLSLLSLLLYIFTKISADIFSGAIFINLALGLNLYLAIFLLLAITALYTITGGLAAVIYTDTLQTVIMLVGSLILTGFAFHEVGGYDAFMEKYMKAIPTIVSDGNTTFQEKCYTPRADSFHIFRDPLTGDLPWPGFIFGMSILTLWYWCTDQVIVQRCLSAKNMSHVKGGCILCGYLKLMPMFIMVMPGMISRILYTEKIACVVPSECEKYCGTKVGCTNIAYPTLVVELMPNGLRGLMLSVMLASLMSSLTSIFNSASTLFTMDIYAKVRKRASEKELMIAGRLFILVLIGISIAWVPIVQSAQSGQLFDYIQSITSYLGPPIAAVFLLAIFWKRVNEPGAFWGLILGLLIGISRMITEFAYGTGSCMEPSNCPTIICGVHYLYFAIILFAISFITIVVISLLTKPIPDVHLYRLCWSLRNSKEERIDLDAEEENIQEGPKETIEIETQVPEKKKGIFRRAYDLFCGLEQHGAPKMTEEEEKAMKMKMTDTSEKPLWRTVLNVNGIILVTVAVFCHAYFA
Protocol: Generation of constitutive human Pit-2 and SGLT1 overexpressing CHO cells and activity assays measuring the uptake of ^33P phosphate for 45 minutes at 20°C for Pit-2 and ^14C-α-methyl-D-glucopyranoside for 120 minutes at 37°C for SGLT1, were also described previously.

[2] = test system: intestinal phosphate absorption; assay: Phosphate absorption in rats: 33P in plasma (15 min) and recovered in gastrointestinal tract (4 h), single agents and combination; assay type: in vivo; settings: 0.4 mg/kg LY3304000, 10 mg/kg LY3358966 or both
Protocol: We also evaluated the effect of LY3304000 and LY3358966 in combination on phosphate absorption in rats by measuring radioactive phosphate recovered in either plasma or the gastrointestinal (GI) tract. In this combination study, two vehicles were used. One is 1% HEC vehicle for making LY3304000 dosing solution, another is 0.46% PVP-VA vehicle contained in LY3358966 SDD. To make the LY3358966 dosing solution, an appropriate amount of LY3358966-SDD was weighed for a 10 mg/kg API dosing solution with 5 mL/kg dosing volume and dissolved in water. To make the LY3304000 dosing solution, an appropriate amount of LY3304000 was weighed for a 0.4 mg/kg dosing solution with 5 mL/kg dosing volume and dissolved in 1% HEC. The Radiolabeled Phosphate Dosing Solutions was made as described above. Following 4-hour fasting with access to water, male SD rats were orally dosed at 10 mL/kg with either two vehicles, an LY3358966 dosing solution and 1% HEC vehicle, an LY3304000 dosing solution and 0.46% PVP-VA vehicle, or an LY3304000 and LY3358966 dosing solutions, combined 1:1 by volume. Fifteen minutes later, Radiolabeled Phosphate Dosing Solution was orally dosed in a 2 mL volume. Fifteen minutes after the radiolabeled phosphate dose, blood was collected by retro orbital bleeding, and plasma was prepared. Radioactivity (dpm) in 20-μL plasma was measured by scintillation counting. The mole amount of phosphate uptake in the plasma was calculated as described above. Four hours post radioactive phosphate dose, the animals were sacrificed by asphyxiation with CO2 followed by cervical dislocation and then the stomach, small intestine, large intestine, and feces were collected and weighed. The tissues and feces were digested in 20 mL or 10 mL of 1 N NaOH, respectively, overnight at 37°C. A 100 μL sample of the homogenates were dispensed into scintillation vials and mixed with 10 mL of Optiphase Supermax scintillation fluid (PerkinElmer), and radioactivity (dpm) was measured by scintillation counting. Very little radioactivity was detected in the feces at 4 hours post radioactive phosphate dose. The percentage of radiolabeled phosphate recovered in the gastrointestinal tissue was defined as radioactivity (dpm) recovered in each fraction compared to the amount of radioactivity (dpm) administered. The mole amount of phosphate uptake into plasma in vehicle and LY3358966 and LY3304000 alone groups were compared to the LY3358966 and LY3304000 combination group using One-way ANOVA with Dunnett’s multiple comparisons. Percent recovery of ^33P phosphate in the rat gastrointestinal tract was analyzed by two-way analysis of variance (ANOVA) in JMP 12.1 to test for additivity of the effects of LY3304000 and LY3358966 on inhibiting phosphate absorption.

Structure (SMILES): CN1Cc2c(Cl)cc(Cl)cc2[C@H](c2cccc(S(=O)(=O)NCCOCCOCCN/C(=N\C(N)=O)NCCCCN/C(=N/C(N)=O)NCCOCCOCCNS(=O)(=O)c3cccc([C@@H]4CN(C)Cc5c(Cl)cc(Cl)cc54)c3)c2)C1.Cl.Cl [LY3304000, (Z)-[[4-[[(Z)-N’-carbamoyl-N-[2-[2-[2-[[3-[(4S)-6,8-dichloro-2-methyl-3,4-dihydro-1H-isoquinolin-4-yl]phenyl]sulfonylamino]ethoxy]ethoxy]ethyl]carbamimidoyl]amino]butylamino]-[2-[2-[2-[[3-[(4S)-6,8-dichloro-2-methyl-3,4-dihydro-1H-isoquinolin-4-yl]phenyl]sulfonylamino]ethoxy]ethoxy]ethylamino]methylene]urea dihydrochloride]
- IC50 [1]: 6.6 µM
- phosphate uptake into plasma ([2]; 15 min post 33P phosphate, vehicle 166, mean ± SEM, n=8): 118 nmol and 118 ± 8 nmol
- percentage of radiolabeled phosphate recovered, Feces ([2]; 4 h): <0.1%
- percentage of radiolabeled phosphate recovered, Large Intestine ([2]; 4 h): 18.16 +/- 2.58%
- percentage of radiolabeled phosphate recovered, Small Intestine ([2]; 4 h): 8.64 +/- 0.32%
- percentage of radiolabeled phosphate recovered, Stomach ([2]; 4 h): 3.9 +/- 0.49%
- percentage of 33P recovered in GI tract, total ([2]; 4 h post 33P phosphate, stomach, small intestine, large intestine and feces, vehicle 25%): 31 ± 7% and 31% and 30.7 +/- 2.43%
- inhibition at 0.4 mg/kg ([2]; Rattus norvegicus, 0.25 h, 15 min post 33P phosphate, versus vehicle, read-out: inhibition of phosphate uptake into plasma): 29%
